Assay results published in US7407934B2, “Methods for regulating postprandial blood glucose” (Amylin Pharmaceuticals, Inc., priority 1993, dated 2008).

How the values were obtained:
[1] = Post-prandial plasma glucose after IV bolus or IV infusion in insulin-dependent diabetic subjects (Example 2); type: in vivo, human
Text: (§1) Subjects in each dose group underwent a two period crossover to examine intravenous (IV) bolus versus IV infusion of drug. Each period consisted of a three-day confinement to the study unit. On each occasion, the initial day of confinement was allowed for acclimatization to the study unit. The second and third days constituted an imbedded crossover of placebo versus active medication. […] An imbedded cross-over design for the administration of drug and placebo on Days 2 and 3 of this admission was employed in a manner similar to that used during the first admission. The six subjects assigned to the placebo group received placebo on each of the study days. On study days, intravenous catheters were inserted at least 30 minutes prior to the start of the study. 15 minutes before dosing, the subjects took their usual insulin dose via subcutaneous injection. […] The infusion rate was designed to administer the assigned amount of drug over the two hour period. Thirty minutes later, the subjects ingested their normal breakfasts. Blood samples were taken between −30 and 300 minutes for the measurement of plasma.

[2] = parameters: species or system human; settings: in vivo, iv
Text: as §1

[3] = Plasma glucose after Sustacal meal or IV glucose load during AC-0137 infusion (Example 3); type: in vivo, human
Text: Twenty-seven subjects with insulin-dependent diabetes mellitus were allocated into a combination of two dose level groups and two types of tolerance tests.
Subjects remained in the clinic for three days. On the first day of confinement, the subjects were acclimatized to the clinic. […] In addition, subjects received either a Sustacal® meal or iv glucose tolerance test, as determined by the group assignment.
During the first day, the subject's usual insulin and caloric intake was stabilized and each subject then followed this insulin and dietary regimen throughout confinement in the clinic.
at approximately, 0700 h (T=0), the continuous infusion of study medication was initiated. At T=30 minutes, the subjects administered their usual AM dose of insulin. […] The type of tolerance test was determined according to the randomization schedule. […] Study drug administration was discontinued at t=300 minutes.
On the morning of the third day, iv lines were again placed in a similar manner as on Day 2. Subjects administered their usual pre-breakfast dose of insulin as on Day 2. […] An identical standardized Sustacal® meal tolerance or iv glucose load as they received on Day 2 was again administered. At the end of the sampling period the iv lines were withdrawn.

[4] = 14-day study, Sustacal meal tolerance test glucose (Example 4); type: in vivo, human; settings: 14 days
Description: 72 subjects with insulin-dependent diabetes mellitus participated in a 14-day clinical trial. Each subject was randomly assigned to one of four treatment groups, receiving placebo, 30, 100 or 300 μg tripro-amylin by subcutaneous injection three times a day for 14 days. The subjects also remained on their usual insulin regimen throughout the study. On days 1 (baseline), 7 and 14, standardized meal tolerance tests were performed.
For the standardized meal tolerance tests, subjects were given a Sustacal® liquid meal (360 ml containing 360 calories) at 0800 h. Subjects abstained from food or drink (except for water) from 2200 h the night before. […] For a baseline test, on day 1, tripro-amylin (or placebo) was not administered until after completion of the test. On day 7 and 14, tripro-amylin (or placebo) was administered in a separate injection at the same time as the usual morning insulin dose. Samples for determination of serum glucose levels were drawn at −30, 0, 30, 60, 120 and 180 minutes relative to the start of the challenge. Time zero was considered to be the time when the subject began to drink the Sustacal® meal.

[5] = Uptake of labelled oral glucose load in corpulent LA/N rats (Example 6); type: in vivo, rat
Description: Uptake of an ingested glucose load was measured in 11 conscious 24-hr fasted corpulent (500-600 g) LA/N rats on 2 occasions, 14 days apart.

[6] = Oral glucose tolerance test in dogs during amylin infusion (Example 1); type: in vivo, dog
Description: Mongrel dogs (9 males, 12-17 kg wt. range) were used for this study. All animals were fasted overnight prior to each study. Each animal served as its own control for all protocols. Animals were equilibrated for 30-60 minutes prior to the start of each protocol.
25% glucose (1 gm/kg) was administered by mouth at t=0 minutes. […] Samples for insulin, glucose and lactate were obtained at 15 minutes intervals from t=−45 to t=180 minutes.

Question: For CC[C@H](C)[C@H](NC(=O)[C@@H]1CCCN1C(=O)CNC(=O)[C@H](Cc1ccccc1)NC(=O)[C@H](CC(N)=O)NC(=O)[C@H](CC(N)=O)NC(=O)[C@H](CO)NC(=O)[C@H](CO)NC(=O)[C@H](Cc1c[nH]cn1)NC(=O)[C@@H](NC(=O)[C@H](CC(C)C)NC(=O)[C@H](Cc1ccccc1)NC(=O)[C@H](CC(N)=O)NC(=O)[C@H](C)NC(=O)[C@H](CC(C)C)NC(=O)[C@H](CCCNC(=N)N)NC(=O)[C@H](CCC(N)=O)NC(=O)[C@@H](NC(=O)[C@H](C)NC(=O)[C@@H]1CSSC[C@H](NC(=O)[C@@H](N)CCCCN)C(=O)N[C@@H](CC(N)=O)C(=O)N[C@@H]([C@@H](C)O)C(=O)N[C@@H](C)C(=O)N[C@@H]([C@@H](C)O)C(=O)N1)[C@@H](C)O)C(C)C)C(=O)N[C@@H](CC(C)C)C(=O)N1CCC[C@H]1C(=O)N1CCC[C@H]1C(=O)N[C@H](C(=O)N[C@@H](CC(N)=O)C(=O)N[C@H](C(=O)NCC(=O)N[C@@H](CO)C(=O)N[C@@H](CC(N)=O)C(=O)N[C@H](C(=O)N[C@@H](Cc1ccc(O)cc1)C(N)=O)[C@@H](C)O)C(C)C)[C@@H](C)O [^25,28,29Pro-h-Amylin], which Post-prandial glucose levels ([1]; IV bolus 30 μg) is on record?
Answer: Its Post-prandial glucose levels is “no apparent change in glucose levels”.

Question: What about the “Post-prandial rise in glucose” value ([1]; IV bolus 100 μg) of the same compound?
Answer: Its value is “clearly delayed and less pronounced”.

Question: And the “Post-prandial rise in glucose” value ([1]; IV bolus 300 μg)?
Answer: The value was “essentially eliminated”.

Question: What about the “Post-prandial rise in glucose” value ([1]; IV infusion 15 μg/hr) of the same compound?
Answer: The value was “highly suggestive of an effect”.

Question: What about the “Post-prandial rise in glucose” value ([1]; IV infusion 50 and 150 μg/hr) of the same compound?
Answer: Its value is “striking”.

Question: What about the Post-prandial hyperglycemia ([1]; continuous 2-hour IV infusion, 15-150 μg/hr) of the same compound?
Answer: The Post-prandial hyperglycemia was “dose-dependent reduction in post-prandial hyperglycemia”.

Question: What about the “Disappearance of drug from plasma compartment” value [2] of the same compound?
Answer: Its value is “apparent first-order kinetics”.

Question: What about the “Plasma glucose levels vs placebo” value ([3]; IV glucose load 300 mg/kg, 50 μg/hr IV infusion) of the same compound?
Answer: The value was “not significantly different from placebo-treated subjects”.

Question: What about the “Plasma glucose levels vs placebo” value ([3]; Sustacal meal, 25 μg/hr or 50 μg/hr IV infusion) of the same compound?
Answer: The value was “reduced”.

Question: What about the “Post-meal glucose: Mean of changes in AUC” value ([4]; 30 micrograms s.c. 3 times daily) of the same compound?
Answer: The value was −6,645 mb/dl * min.

Question: And the “Post-meal glucose: Mean of changes in AUC” value ([4]; 100 micrograms s.c. 3 times daily)?
Answer: Its value is −6,412 mb/dl * min.

Question: What about the “Post-meal glucose: Mean of changes in AUC” value ([4]; 300 micrograms s.c. 3 times daily) of the same compound?
Answer: Its value is −7,316 mb/dl * min.

Question: With “ac-^10N^32Y8-32-salmon calcitonin [AC-0187]” as the compound, how does the “Acceleration of appearance of glucose-derived tritium in plasma” value ([5]; 3 μg s.c. 3 min before gavage, 15 minutes post-gavage (P<0.02)) read?
Answer: Its value is 48%.

Question: What about the “Acceleration of appearance of glucose-derived tritium in plasma” value ([5]; 3 μg s.c., 30 minutes post-gavage (P<0.001)) of the same compound?
Answer: Its value is 45%.

Question: What about the Plasma glucose ([5]; 15 minutes after gavage with 0.5 g glucose, rise from 5.89±0.17) of the same compound?
Answer: The Plasma glucose was 8.33 ± 0.28 mM.

Question: And the Plasma glucose ([5]; 60 minutes after glucose gavage)?
Answer: Its Plasma glucose is 6.89 ± 0.28 mM.

Question: Which “Changes in plasma glucose, antagonist alone” value ([6]; AC-0253 alone) does the source give for “acetyl-^11,18Arg, ^30Arg, ^32Tyr-^9-32calcitonin (salmon) [AC-0253]” here?
Answer: The value was “no effect”.

Question: What about the “Reversal of amylin-induced changes in plasma glucose” value ([6]; AC-0253 up to 1500 pmol/kg/min with amylin 50 pmol/kg/min) of the same compound?
Answer: The value was “does not completely reverse the effects of amylin”.

Question: And the “Effects on plasma lactate” value ([6]; oral glucose load)?
Answer: Its value is “unremarkable”.
